Experimental data published in BindingDB's records for doi:10.1021/jm0009181 (National Center For Genetic Engineering and Biotechnology …, 2000).

Biological target: Bifunctional dihydrofolate reductase-thymidylate synthase (Plasmodium falciparum, UniProt A7UD81)
Assay: Evaluated for inhibition constant (Ki wt) against Wild-type dihydrofolate reductase of Plasmodium falciparum

Bifunctional dihydrofolate reductase-thymidylate synthase, sequence (A7UD81 whole entry): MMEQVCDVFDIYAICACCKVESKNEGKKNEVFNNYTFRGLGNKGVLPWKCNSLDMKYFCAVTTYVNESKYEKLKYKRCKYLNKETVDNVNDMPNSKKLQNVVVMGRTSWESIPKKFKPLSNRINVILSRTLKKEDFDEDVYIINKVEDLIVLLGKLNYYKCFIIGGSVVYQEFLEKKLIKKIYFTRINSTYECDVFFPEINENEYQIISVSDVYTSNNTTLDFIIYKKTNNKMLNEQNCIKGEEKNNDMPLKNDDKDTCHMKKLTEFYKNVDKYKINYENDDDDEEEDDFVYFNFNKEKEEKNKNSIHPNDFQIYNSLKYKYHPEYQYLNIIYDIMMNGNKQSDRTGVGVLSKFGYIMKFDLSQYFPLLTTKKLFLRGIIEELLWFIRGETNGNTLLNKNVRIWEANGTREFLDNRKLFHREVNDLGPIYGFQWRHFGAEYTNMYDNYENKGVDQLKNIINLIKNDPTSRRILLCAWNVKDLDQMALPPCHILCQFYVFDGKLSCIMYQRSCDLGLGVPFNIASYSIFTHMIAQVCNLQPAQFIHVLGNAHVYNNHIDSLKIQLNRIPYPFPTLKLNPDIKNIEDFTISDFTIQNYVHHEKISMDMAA

Ki [nM]	SMILES
1.4	CC1N=C(N)N=C(N)N1c1ccc(Cl)c(Cl)c1 (stereo unspecified) [1-(3,4-Dichloro-phenyl)-6-methyl-1,6-dihydro-[1,3,5]triazine-2,4-diamine]
5.7	CCC1N=C(N)N=C(N)N1c1ccc(Br)cc1 (stereo unspecified) [1-(4-Bromo-phenyl)-6-ethyl-1,6-dihydro-[1,3,5]triazine-2,4-diamine]
30	CC(C)C1N=C(N)N=C(N)N1c1ccc(Br)cc1 (stereo unspecified) [1-(4-Bromo-phenyl)-6-isopropyl-1,6-dihydro-[1,3,5]triazine-2,4-diamine]
5.7	CC1N=C(N)N=C(N)N1c1ccc(Br)cc1 (stereo unspecified) [1-(4-Bromo-phenyl)-6-methyl-1,6-dihydro-[1,3,5]triazine-2,4-diamine]
2.9	NC1=NC(c2ccccc2)N(c2ccc(Br)cc2)C(N)=N1 (stereo unspecified) [1-(4-Bromo-phenyl)-6-phenyl-1,6-dihydro-[1,3,5]triazine-2,4-diamine]
2.6	CCCC1N=C(N)N=C(N)N1c1ccc(Br)cc1 (stereo unspecified) [1-(4-Bromo-phenyl)-6-propyl-1,6-dihydro-[1,3,5]triazine-2,4-diamine]
24.4	NC1=NCN(c2ccc(Cl)cc2)C(N)=N1 [1-(4-Chloro-phenyl)-1,6-dihydro-[1,3,5]triazine-2,4-diamine]
3.6	CCC1N=C(N)N=C(N)N1c1ccc(Cl)cc1 (stereo unspecified) [1-(4-Chloro-phenyl)-6-ethyl-1,6-dihydro-[1,3,5]triazine-2,4-diamine]
60.5	CC(C)C1N=C(N)N=C(N)N1c1ccc(Cl)cc1 (stereo unspecified) [1-(4-Chloro-phenyl)-6-isopropyl-1,6-dihydro-[1,3,5]triazine-2,4-diamine]
4.6	CCCC1N=C(N)N=C(N)N1c1ccc(Cl)cc1 (stereo unspecified) [1-(4-Chloro-phenyl)-6-propyl-1,6-dihydro-[1,3,5]triazine-2,4-diamine]
270	NC1=NCN(c2ccc(F)cc2)C(N)=N1 [1-(4-Fluoro-phenyl)-1,6-dihydro-[1,3,5]triazine-2,4-diamine]
4.6	CC1(C)N=C(N)N=C(N)N1c1ccc(F)cc1 [1-(4-Fluoro-phenyl)-6,6-dimethyl-1,6-dihydro-[1,3,5]triazine-2,4-diamine]
329	NC1=NCN(c2ccccc2)C(N)=N1 [1-Phenyl-1,6-dihydro-[1,3,5]triazine-2,4-diamine]
20	CC1(C)N=C(N)N=C(N)N1c1ccccc1 [6,6-Dimethyl-1-phenyl-1,6-dihydro-[1,3,5]triazine-2,4-diamine]
3.7	CCCCC1N=C(N)N=C(N)N1c1ccc(Cl)cc1 (stereo unspecified) [6-Butyl-1-(4-chloro-phenyl)-1,6-dihydro-[1,3,5]triazine-2,4-diamine]
5.9	CCC1N=C(N)N=C(N)N1c1ccc(C)cc1 (stereo unspecified) [6-Ethyl-1-p-tolyl-1,6-dihydro-[1,3,5]triazine-2,4-diamine]
167	Cc1ccc(N2C(N)=NC(N)=NC2C(C)C)cc1 (stereo unspecified) [6-Isopropyl-1-p-tolyl-1,6-dihydro-[1,3,5]triazine-2,4-diamine]
23	Cc1ccc(N2C(N)=NC(N)=NC2C)cc1 (stereo unspecified) [6-Methyl-1-p-tolyl-1,6-dihydro-[1,3,5]triazine-2,4-diamine]
7.7	Cc1ccc(N2C(N)=NC(N)=NC2c2ccccc2)cc1 (stereo unspecified) [6-Phenyl-1-p-tolyl-1,6-dihydro-[1,3,5]triazine-2,4-diamine]
13.7	CCCC1N=C(N)N=C(N)N1c1ccc(C)cc1 (stereo unspecified) [6-Propyl-1-p-tolyl-1,6-dihydro-[1,3,5]triazine-2,4-diamine]

SMILES	Ki [nM]
CC1(C)N=C(N)N=C(N)N1c1ccc(Br)cc1 [1-(4-Bromo-phenyl)-6,6-dimethyl-1,6-dihydro-[1,3,5]triazine-2,4-diamine]	1.1
